In this test the target is T1, CXCR7 (Homo sapiens, UniProt P25106).
T1 construct: host or cells: CHO-K1 (PathHunter CHO-K1 CXCR7 b-arrestin cell line, stably transfected)
As to the kind of experiment: PathHunter CHO-K1 CXCR7 b-arrestin recruitment assay (CXCR7 agonistic activity). Type of test: cell-based. The settings on record: PathHunter CHO-K1 CXCR7 b-arrestin cell line. An outline of the steps:
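Stable CHO-K1 line with C-terminally ProLink-tagged CXCR7 and β-arrestin 2–EA fusion; β-arrestin recruitment restores β-gal activity, read by chemiluminescence after 1 h RT detection. Cells seeded 24 h, starved in OPTIMEM 3–4 h, exposed to compounds 90 min at 37 °C in HBSS/HEPES/BSA. Geometric-mean EC50 from repeated measurements.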

T1 sequence (P25106 whole entry): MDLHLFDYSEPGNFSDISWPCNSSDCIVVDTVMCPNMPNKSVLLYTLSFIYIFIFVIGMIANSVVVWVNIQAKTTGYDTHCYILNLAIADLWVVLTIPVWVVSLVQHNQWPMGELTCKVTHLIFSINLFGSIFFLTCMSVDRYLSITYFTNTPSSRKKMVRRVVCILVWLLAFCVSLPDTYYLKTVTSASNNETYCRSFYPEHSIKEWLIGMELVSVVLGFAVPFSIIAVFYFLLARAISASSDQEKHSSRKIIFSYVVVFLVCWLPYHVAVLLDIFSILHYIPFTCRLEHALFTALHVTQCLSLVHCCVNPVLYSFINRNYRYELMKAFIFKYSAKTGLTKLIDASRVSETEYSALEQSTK
T1 sequence (P32121 whole entry partner): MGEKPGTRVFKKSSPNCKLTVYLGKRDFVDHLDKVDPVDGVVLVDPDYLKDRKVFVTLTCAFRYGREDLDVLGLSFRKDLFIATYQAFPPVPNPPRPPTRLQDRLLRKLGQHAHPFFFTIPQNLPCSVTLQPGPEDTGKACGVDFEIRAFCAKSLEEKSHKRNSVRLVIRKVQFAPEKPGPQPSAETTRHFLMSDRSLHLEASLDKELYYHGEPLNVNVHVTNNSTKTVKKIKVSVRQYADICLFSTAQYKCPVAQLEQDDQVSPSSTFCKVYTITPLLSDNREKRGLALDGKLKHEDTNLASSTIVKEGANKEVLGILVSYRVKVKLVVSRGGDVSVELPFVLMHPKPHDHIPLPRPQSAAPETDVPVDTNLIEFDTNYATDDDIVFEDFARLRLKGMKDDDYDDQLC

In turn, `CN(C)CCN(Cc1ccccc1C(F)(F)F)C(=O)CNc1cccc2c1CCN(C1CCC1)C2` [Example 352, 2-(2-Cyclobutyl-1,2,3,4-tetrahydro-isoquinolin-5-ylamino)-N-(2-dimethylamino-ethyl)-N-(2-trifluoromethyl-benzyl)-acetamide] yielded an EC50 of 0.004 µM. Then `CNCCN(Cc1ncccc1C(F)(F)F)C(=O)CNc1cccc2c1CCN(C(=O)OCC(C)C)C2` [compound 426], with 0.074 µM.

Turning to `CN(C)CCN(Cc1ncccc1Cl)C(=O)/C=C/c1cccc2c1CCN(CC1CC1)C2` [Example 333, (E)-N-(3-Chloro-pyridin-2-ylmethyl)-3-(2-cyclopropylmethyl-1,2,3,4-tetrahydro-isoquinolin-5-yl)-N-(2-dimethylamino-ethyl)-acrylamide], the midpoint of the response, the EC50, lay at 0.002 µM.

As to `CC(C)N1CCc2c(cccc2NCC(=O)N(CCN(C)C)Cc2ccccc2)C1` [compound 109], the EC50 came out at 0.073 µM.

Molecule `CN(C)CCN(Cc1ccc(F)cc1C(F)(F)F)C(=O)CNc1cccc2c1CCN(CC1CC1)C2` [Example 54, 2-(2-Cyclopropylmethyl-1,2,3,4-tetrahydro-isoquinolin-5-ylamino)-N-(2-dimethylamino-ethyl)-N-(4-fluoro-2-trifluoromethyl-benzyl)-acetamide] showed an EC50 of 0.007 µM. In the case of `CN(C)CCN(Cc1nccs1)C(=O)CNc1cccc2c1CCN(CC1CC1)C2` [Example 265, 2-(2-Cyclopropylmethyl-1,2,3,4-tetrahydro-isoquinolin-5-ylamino)-N-(2-dimethylamino-ethyl)-N-thiazol-2-ylmethyl-acetamide], the response was half-maximal at 0.048 µM (EC50). The value for `CC(C)OC(=O)N1CCc2cccc(NCC(=O)N(CCN(C)C)Cc3ccccc3)c2C1` [compound 192, 8-({[Benzyl-(2-dimethylamino-ethyl)-carbamoyl]-methyl}-amino)-3,4-dihydro-1H-isoquinoline-2-carboxylic acid isopropyl ester] was 0.038 µM; that for `O=C(CNc1cccc2c1CCN(CC1CC1)C2)N(Cc1ccccc1C(F)(F)F)CC1CCNC1` (racemic) [compound 441] was 0.005 µM; that for `CCNC(=O)N1CCc2c(cccc2NCC(=O)N(CCNC)Cc2ccccc2C(F)(F)F)C1` [compound 403, 5-({[(2-Methylamino-ethyl)-(2-trifluoromethyl-benzyl)-carbamoyl]-methyl}-amino)-3,4-dihydro-1H-isoquinoline-2-carboxylic acid ethylamide] was 0.024 µM.

In the case of `CN(C)CCN(Cc1ccccc1C(F)(F)F)C(=O)CN(C)c1cccc2c1CCN(CC1CC1)C2` [Example 87, 2-[(2-Cyclopropylmethyl-1,2,3,4-tetrahydro-isoquinolin-5-yl)-methyl-amino]-N-(2-dimethylamino-ethyl)-N-(2-trifluoromethyl-benzyl)-acetamide], the response was half-maximal at 0.003 µM (EC50). The value for `COCCN1CCc2c(/C=C/C(=O)N(Cc3ncccc3Cl)CC(C)(C)O)cccc2C1` [Example 328, (E)-N-(3-Chloro-pyridin-2-ylmethyl)-N-(2-hydroxy-2-methyl-propyl)-3-[2-(2-methoxy-ethyl)-1,2,3,4-tetrahydro-isoquinolin-5-yl]-acrylamide] was 0.293 µM; that for `CN(C)CCN(Cc1ccccc1C(F)(F)F)C(=O)Cc1cccc2c1CCN(CC1CC1)C2` [Example 6, 2-(2-Cyclopropylmethyl-1,2,3,4-tetrahydro-isoquinolin-5-yl)-N-(2-dimethylamino-ethyl)-N-(2-trifluoromethyl-benzyl)-acetamide] was 0.06 µM. The value for `CN(C)CCN(Cc1ccccc1)C(=O)/C=C/c1cccc2c1CCN(C)C2` [compound 142, (E)-N-Benzyl-N-(2-dimethylamino-ethyl)-3-(2-methyl-1,2,3,4-tetrahydro-isoquinolin-5-yl)-acrylamide] was 0.023 µM; that for `CN(C)CCN(Cc1ccccc1Cl)C(=O)CCc1cccc2c1CCN(CC1CC1)C2` [compound 156, N-(2-Chloro-benzyl)-3-(2-cyclopropylmethyl-1,2,3,4-tetrahydro-isoquinolin-5-yl)-N-(2-dimethylamino-ethyl)-propionamide] was 0.001 µM. Take `CC(C)CN1Cc2cccc(NCC(=O)N(CCN(C)C)Cc3ccccc3C(F)(F)F)c2CC1=O` [Example 312, N-(2-Dimethylamino-ethyl)-2-(2-isobutyl-3-oxo-1,2,3,4-tetrahydro-isoquinolin-5-ylamino)-N-(2-trifluoromethyl-benzyl)-acetamide]: it took 0.037 µM to reach a half-maximal effect (EC50).

In the case of `COCCN1CCc2c(cccc2NCC(=O)N(Cc2ccccc2C(F)(F)F)CC2(C)COC2)C1` [Example 303, 2-[2-(2-Methoxy-ethyl)-1,2,3,4-tetrahydro-isoquinolin-5-ylamino]-N-(3-methyl-oxetan-3-ylmethyl)-N-(2-trifluoromethyl-benzyl)-acetamide], the EC50 is 0.246 µM. The value for `CN(C)CCN(Cc1ccc(OC(F)(F)F)cc1)C(=O)CNc1cccc2c1CCN(CC1CC1)C2` [Example 228, 2-(2-Cyclopropylmethyl-1,2,3,4-tetrahydro-isoquinolin-5-ylamino)-N-(2-dimethylamino-ethyl)-N-(4-trifluoromethoxy-benzyl)-acetamide] was 0.117 µM; that for `CCN1CCc2cccc(NCC(=O)N(CCN(C)C)Cc3nccs3)c2C1` [compound 541] was 0.175 µM; that for `CC(C)(O)CN(Cc1ncccc1Br)C(=O)CNc1cccc2c1CN(C1CCC1)CC2` [compound 458] was 0.109 µM. Then `CN1CCC(N(Cc2ccccc2C(F)(F)F)C(=O)CNc2cccc3c2CCN(C(=O)OC(C)(C)C)C3)CC1` [Example 10, 5-({[(1-Methyl-piperidin-4-yl)-(2-trifluoromethyl-benzyl)-carbamoyl]-methyl}-amino)-3,4-dihydro-1H-isoquinoline-2-carboxylic acid tert-butyl ester], with 0.337 µM; and `COCCN1CCc2c(/C=C/C(=O)N(CCC(C)(C)O)Cc3ccccc3C(F)(F)F)cccc2C1` [Example 325, (E)-N-(3-Hydroxy-3-methyl-butyl)-3-[2-(2-methoxy-ethyl)-1,2,3,4-tetrahydro-isoquinolin-5-yl]-N-(2-trifluoromethyl-benzyl)-acrylamide], with 0.334 µM; and `CN(C)CCN(Cc1ccccc1)C(=O)CNc1cccc2c1CN(CC1CC1)CC2` [compound 187, N-Benzyl-2-(2-cyclopropylmethyl-1,2,3,4-tetrahydro-isoquinolin-8-ylamino)-N-(2-dimethylamino-ethyl)-acetamide], with 0.034 µM.

The molecule `CN1CCCC1CCN(Cc1ccccc1)C(=O)Cc1cccc2c1CCN(CC1CC1)C2` (racemic) [Example 4, rac-N-Benzyl-2-(2-cyclopropylmethyl-1,2,3,4-tetrahydro-isoquinolin-5-yl)-N-[2-(1-methyl-pyrrolidin-2-yl)-ethyl]-acetamide] returned an EC50 of 0.047 µM. Then `CN(C)CCN(Cc1ccccc1)C(=O)COc1cccc2c1CN(C)CC2` [Example 201, N-Benzyl-N-(2-dimethylamino-ethyl)-2-(2-methyl-1,2,3,4-tetrahydro-isoquinolin-8-yloxy)-acetamide], with 0.027 µM. Then `CC(C)CN1Cc2cccc(NCC(=O)N(CCN(C)C)Cc3ncccc3C(F)(F)F)c2CC1=O` [Example 313, N-(2-Dimethylamino-ethyl)-2-(2-isobutyl-3-oxo-1,2,3,4-tetrahydro-isoquinolin-5-ylamino)-N-(3-trifluoromethyl-pyridin-2-ylmethyl)-acetamide], with 0.031 µM; and `CCN(CCN(Cc1ccccc1C(F)(F)F)C(=O)CNc1cccc2c1CCN(CC1CC1)C2)CC1(C)COC1` [compound 453], with 0.006 µM; and `CN(C)CCN(Cc1ccccc1C(F)(F)F)C(=O)CNc1cccc2c1CCN(C(=O)C1CC1(F)F)C2` (racemic) [Example 570, rac-2-[2-(2,2-Difluoro-cyclopropanecarbonyl)-1,2,3,4-tetrahydro-isoquinolin-5-ylamino]-N-(2-dimethylamino-ethyl)-N-(2-trifluoromethyl-benzyl)-acetamide], with 0.014 µM. The value for `C/C(=C\c1cccc2c1CCN(C(=O)OC(C)(C)C)C2)C(=O)N(CCN(C)C)Cc1ccccc1C(F)(F)F` [Example 97, 5-{(E)-2-[(2-Dimethylamino-ethyl)-(2-trifluoromethyl-benzyl)-carbamoyl]-propenyl}-3,4-dihydro-1H-isoquinoline-2-carboxylic acid tert-butyl ester] was 0.365 µM; that for `CN(C)CCN(Cc1ccccc1C(F)(F)F)C(=O)CNc1cccc2c1CCN(CC1(C)COC1)C2` [Example 358, N-(2-Dimethylamino-ethyl)-2-[2-(3-methyl-oxetan-3-ylmethyl)-1,2,3,4-tetrahydro-isoquinolin-5-ylamino]-N-(2-trifluoromethyl-benzyl)-acetamide] was 0.026 µM.

`CCN1CCc2c(CCC(=O)N(Cc3ccccc3C(F)(F)F)C3CCN(C)CC3)cccc2C1` [compound 159] had an EC50 of 0.072 µM. Then `O=C(CNc1cccc2c1CCN(CC1CC1)C2)N(CCN1CCNC1=O)Cc1ccccc1C(F)(F)F` [Example 79, 2-(2-Cyclopropylmethyl-1,2,3,4-tetrahydro-isoquinolin-5-ylamino)-N-[2-(2-oxo-imidazolidin-1-yl)-ethyl]-N-(2-trifluoromethyl-benzyl)-acetamide], with 0.135 µM; and `COCCN1CCc2c(cccc2NCC(=O)N(CCC(C)(C)C)Cc2ncccc2C)C1` [Example 298, N-(3,3-Dimethyl-butyl)-2-[2-(2-methoxy-ethyl)-1,2,3,4-tetrahydro-isoquinolin-5-ylamino]-N-(3-methyl-pyridin-2-ylmethyl)-acetamide], with 0.114 µM; and `CN(C)CCN(Cc1ccccc1C(F)(F)F)C(=O)CNc1cccc2c1CN(C)CC2` [compound 564, N-(2-Dimethylamino-ethyl)-2-(2-methyl-1,2,3,4-tetrahydro-isoquinolin-8-ylamino)-N-(2-trifluoromethyl-benzyl)-acetamide], with 0.017 µM.

The values above are taken from patent publication US9920010B2, “CXCR7 receptor modulators” (IDORSIA PHARMACEUTICALS LTD, priority 2013, dated 2018).
